{"source": "paper PMC4026528", "about": "(PLoS ONE, 2014)", "key": {"[1]": {"system": "Wnt transcriptional activity (TCF reporter) in U2OS cells", "assay": "TCF-Luciferase/TA-Renilla Wnt reporter assay in U2OS", "assay_type": "cell-based, human", "conditions": "24 h, concentration dependent", "source_text": "(§1) The generation of TCF-Luciferase and TA-Renilla reporter plasmids as well as IC50 determination and calculation was reported previously. Human AXIN1 and WNT3A cDNAs were purchased from Origene as “transfection ready” plasmids. Dominant negative TCF4 cDNA was purchased from Upstate. Luciferase reporter of the nucleolin promoter (pNucL14) and FLAG-c-Myc expressing vector were from B. Amati. Luciferase reporter of the Hes5 promoter and Notch1-IC expressing vector were from I. Screpanti. Lentiviral vectors for inducible dominant negative TCF4 (rLV-EF1-tTS, rLV-EF1-rtTA and rLV-TRE-CMV-HA-TCF4DN) were purchased from Vectalys.\n(§2) Transfections were carried out using Lipofectamine 2000 (Invitrogen) according to the manufacturer’s instructions. Lentiviral expression of TCF-Luc, TA-Renilla, and the inducible dominant negative TCF4, were carried out following Vectalys instructions. For reporter assays, luciferase activities were performed as described previously."}, "[2]": {"system": "Axin1/P-β-catenin co-localization in U2OS cells", "assay": "Axin1-GFP / P-β-catenin co-localization (confocal) in U2OS", "assay_type": "cell-based, human", "conditions": "Wnt3a-CM, 10 µmol/L overnight"}, "[3]": {"system": "Wnt target gene mRNA in HT-1080 cells", "assay": "Quantitative RT-PCR of Wnt target genes in HT-1080", "assay_type": "cell-based, human", "conditions": "HT-1080, overnight, 10 µmol/L", "method": "RNA extraction and quantitative RT-PCR (qPCR) expression analysis was performed as described previously. Gene expression analysis was performed using the human housekeeping gene RPL13A. Primers for the hAXIN2, hCDC25A, hc-MYC, hFZD4, hDVL2, hCSNK1G and hVEGF-A were the following: Fw: 5′-CAAGGGCCAGGTCACCAA-3′ Rv: 5′-CCCCCAACCCATCTTCGT-3′; Fw: 5′-[…]-3′ Rv: 5′-[…]-3′; Fw: 5′-GGCTCCTGGCAAAAGGTCA-3′ Rv: 5′-[…]-3′; Fw: 5′-[…]-3′ Rv: 5′-[…]-3′; Fw: 5′-[…]-3′ Rv: 5′-GTCTCCCCGCTCATTGCTC-3′; Fw: 5′-[…]-3′ Rv: 5′-[…]-3′; Fw: 5′-[…]-3′ Rv: 5′-[…]-3′."}, "[4]": {"system": "Axin1, TNKS1/2, c-Myc protein in U2OS cells", "method": "Total, nuclear and cytosolic cells lysates were prepared as described previously. Commercial antibodies used in this study include anti-Axin1, anti-β-catenin, anti-P-β−catenin Ser33/Ser37/Thr41 and anti-HA from Cell Signaling Technologies, anti-p21 (Santa Cruz), anti-tankyrases (Abcam), anti-Tubulin and anti-c-Myc from Calbiochem, anti-GAPDH and anti-β-actin (Sigma). For co-localization experiments, U2OS cells were plated directly on coverslips coated with Fibronectin (Invitrogen). After transfections and incubation treatment of 24 h, cells were washed once with 1X PBS and then fixed with 4% paraformaldehyde for 15 min. After three washes in PBS, cells were permeabilized with 0.1% Triton X-100 for 10 min and washed three times with TBS (Bio-Rad). […] After 24 h, cells were washed three times with TBS and incubated for 1 h with the following secondary antibody Alexa Fluor 546-conjugated goat anti-rabbit IgG (Invitrogen, 1∶1000). Finally, coverslips were mounted onto glass slides using Prolong Gold Antifade reagent with DAPI (Invitrogen). Cells were examined under laser confocal fluorescence microscope with plan-apochromate 40x and 63x/1.4 oil-immersion objective (LSM 510 Meta, Axiovert 200, Zeiss). Co-localization experiments were performed in triplicate, and data/images presented are the average of at least 10 random fields for each independent experiment."}, "[5]": {"system": "Axin1, c-Myc, p21 protein in HT-1080 cells", "assay": "Western blotting in HT-1080", "assay_type": "cell-based, human", "conditions": "HT-1080, overnight"}, "[6]": {"system": "Myc transcriptional activation in HT-1080 cells", "assay": "Nucleolin promoter (pNucL14) luciferase reporter, HT-1080", "assay_type": "cell-based, human", "conditions": "HT-1080, pNucL14 ± FLAG-c-Myc", "source_text": "as §1, §2"}, "HT-1080 xenograft tumor": {"system": "HT-1080 xenograft tumor", "assay": "HT-1080 xenograft tumor growth", "assay_type": "in vivo, female Crl:CD-1 nude mice", "conditions": "30 mg/kg twice a day PO, seven days", "method": "Female athymic nude mice (6 weeks old, Crl:CD-1 nude mice) were obtained from Charles River Italia (Calco, Italy). HT-1080 cells (6×10^∧6 cells) were resuspended in 200 µl of PBS 1X and injected subcutaneously in the right flank of the mice. Body weight and tumor measurements (using a digital caliper) were performed twice a week. Randomization was performed on day 12 after cell injection by comparing tumor mass and treatments started on day 13 when tumors reached a median size of 246 mm^3 (range = 230–268 mm^3). SEN461 was formulated in 0.5% w/v Methocel in MilliQ water and administered PO by oral gavage twice a day at 30 mg/kg for seven consecutive days in a total of 15 animals (n = 5 for each time point). Control animals (n = 5) were administered with the vehicle for the same time period. On treatment day 19, the mice were euthanized under inhalant anesthesia with isoflurane and tumor and blood samples were collected at three different time points (1–4–8 h, n = 5 animals for each time point) after last treatment and subjected to gene expression analysis and compound quantification. All mice were maintained in a conventional-specific-pathogen-free facility according to the NIH guidelines using an approved Animal Care and Use Committee protocol. […]"}}}
{"smiles": "COCC(=O)N1CCN(C(=O)C2CCC(Cn3c(=O)c4cc(OC)ccc4n(C)c3=O)CC2)CC1", "note": "(centres unmarked) [SEN461]", "values": [{"measurement": "TCF-dependent reporter activity (TCF-Luciferase/TA-Renilla)", "setting": "[1]", "result": "reduced TCF-dependent reporter activity"}, {"measurement": "phosphorylated β-catenin associated with Axin1 (co-localization)", "setting": "[2]", "result": "increase in the amount of phosphorylated β-catenin associated with Axin1"}, {"measurement": "c-MYC mRNA", "setting": "[3]", "result": "significant down-modulation"}, {"measurement": "tankyrases (TNKS1 and TNKS2) protein level", "setting": "[4]; only at the highest concentration", "result": "very slight stabilization"}, {"measurement": "c-Myc protein level", "setting": "[4]; overnight", "result": "No effect"}, {"measurement": "Axin1 protein level", "setting": "[4]; overnight, cytoplasmic lysates", "result": "concentration-dependent stabilization"}, {"measurement": "Axin1 protein level", "setting": "[5]", "result": "robust concentration dependent stabilization"}, {"measurement": "CDK inhibitor p21 protein level", "setting": "[5]", "result": "up-regulation"}, {"measurement": "c-Myc protein level", "setting": "[5]", "result": "down-modulation of c-Myc"}, {"measurement": "Myc mediated activation / basal activity of nucleolin reporter", "setting": "[6]", "result": "did not affect"}, {"measurement": "antitumor activity (tumor growth)", "setting": "HT-1080 xenograft tumor", "result": "tumor stasis effect"}]}
